Test results published in patent US20240150321A1, “PYRAZOLYLSULFONAMIDE COMPOUNDS AND THEIR USE IN THERAPY” (HOTSPOT THERAPEUTICS, INC., priority 2022, published 2024).

Assays:
Avi-tagged FL MALT-1 = Avi-tagged FL MALT-1 (Homo sapiens (Human), UniProt Q9UDY8); assay: MALT-1 Fluorogenic Peptide Cleavage Assay (MALT1 inhibition assay); format: biochemical; conditions: Ac-LRSR-AMC peptide substrate, 30 min pre-incubation, 90 min reaction at room temperature
Protocol: Inhibition of MALT1 activity by the presence of small molecules was evaluated using MALT-1 Fluorogenic Peptide Cleavage Assay. The assay utilizes a quenched AMC-labelled peptide that contains the MALT-1 recognition sequence and cleavage site (LRSR). MALT-1 mediated cleavage of the peptide relieves the quenching and leads to an increase in fluorescence at excitation (342 nm) and emission (441 nm).
The following reagents were obtained commercially and used to prepare standard reagent formulations as further described below: N-2-hydroxyethylpiperazine-N-2-ethane sulfonic acid (HEPES) (1 M, pH 7.5, stored at 4° C.), sodium citrate (stored at RT), tris(2-carboxyethyl) phosphine hydrochloride (T-CEP) (500 mM, stored at −20° C.), ethylenediaminetetraacetic acid (EDTA) (500 mM, stored at RT), dimethylsulfoxide (DMSO, stored at RT), 3-[(3-cholamido-propyl)dimethylammonio]-1-propane sulphate (CHAPS) (stored at RT), dimethylsulfoxide (DMSO), DMSO (Fisher Scientific, stored at RT), Avi-tagged FL MALT-1 (Pharmaron, stored at −70° C.), Ac-LRSR-AMC Peptide (SM Biochemicals, stored at −20° C.)., and ultrapure water (MILLLI-Q©).
The standard reagent formulations used in this assay were prepared and stored as follows. A 1.1 M solution of sodium citrate (161.3 g, 500 mL) was prepared and stored at room temperature. A 10% (w/v) CHAPS solution (2.0 g, 20 mL) was prepared and stored at 4° C. A 500 mM HEPES solution having pH of 6.89 was prepared from 200 mL of a 1 M HEPES solution having a pH of 7.5 using concentrated hydrochloric acid and brought to a final volume of 400 mL with MILLI-Q© H2O. The substrate, 10 mM Ac-LRSR-AMC Peptide, was prepared (10 mg, 1.370 mL DMSO) and stored at −20° C.
Compounds were plated to provide a 2% DMSO final concentration using a ProxiPlate-384 Plus F Black 384-shallow well microplate. The assay-ready plates were equilibrated to room temperature. A reaction buffer (30 mL total volume) was prepared by combining HEPES (pH 6.89, 25 mM, 1.5 mL), sodium citrate (660 mM, 18.0 mL), T-CEP (1 mM, 0.06 mL), EDTA ([…], 0.06 mL), CHAPS (0.05%, 0.15 mL), DMSO (2%, 0.6 mL), and MILLI-Q© H2O (10.23 mL; 9.63 mL when backfilled to 2% DMSO) followed by thorough mixing. DMSO was added only when compound plates had not been DMSO-backfilled to 2%.
MALT-1 was thawed and kept on ice. Peptide substrate was thawed on the bench under ambient conditions. A MALT-1 enzyme working stock was prepared from Avi-tagged FL MALT-1 (40 nM in a prepared reagent volume of 16.5 μL) and the reaction buffer (13.0 mL). MALT1 working stock (5 μL) was added to each well of the microplate. MALT-1 was pre-incubated with compounds for 30 minutes at room temperature.
Two substrate working stocks (Km and 10×Km) were prepared. The 1×Km substrate was prepared from Ac-LRSR-AMC Peptide (50 μM in a prepared reagent volume of 35.0 μL) and the reaction buffer (6.965 mL). The 10×Km substrate was prepared from Ac-LRSR-AMC Peptide (280 μM in a prepared reagent volume of 196.0 μL) and the reaction buffer (6.804 mL). The reaction was initiated by the addition of substrate working stock (5 μL, 50 μM) to Km plates and the addition of substrate working stock (5 μL 280 μM) to 10×Km plates. The plates were covered and incubated on the bench at room temperature for 90 minutes.
Fluorescence intensity was determined using a CLARIOstar microplate reader (BMG LABTECH) using the optimised AMC mode. Before taking readings, a 70% gain was applied on the neutral control well. Compound data were normalised to % Inhibition and used to plot sigmoidal concentration response curves to yield various parameters including IC50.

[1] = tested on: NF-kB reporter in Jurkat cells; assay: NF-kB reporter assay in Jurkat cells stimulated with aCD3/aCD28/PMA; format: cell-based; conditions: Homo sapiens; Jurkat cells, 1 hr compound pre-incubation, aCD3/aCD28/PMA stimulation 4 hr, One-Glo readout; read-out: NF-kB Reporter Assay IC50
Protocol: Jurkat cells were maintained in complete RPMI 1640 media supplemented with 10% FBS. Prior to the assay, 120 nL of the serial diluted compound was added in each well of 384-well flat bottom white plate (Corning #3570) by using liquid handler Echo550. Jurkat cells were harvested by centrifugation at 120 g for 10 min and resuspended in fresh RPMI 1640 media without serum. […] (25,000 cells) were seeded in each well of 384-well plate containing compound. After 1 hr incubation at 37° C. in a 5% CO2 incubator, […] of diluted aCD3/aCD28/PMA (final concentration at […] and […], respectively) in RPMI 1640 without serum were added to each well. After incubation at 37° C. in 5% CO2 for 4 hr, […] of One-Glo reagent (Promega #E6120) was added into each well. The plate was left at room temperature for 5 min and the signal was measured on EnVision (PerkinElmer).
Compounds in which an IC50 was not measured are designated as “N/A”.

Chain of Avi-tagged FL MALT-1 (Q9UDY8 whole entry): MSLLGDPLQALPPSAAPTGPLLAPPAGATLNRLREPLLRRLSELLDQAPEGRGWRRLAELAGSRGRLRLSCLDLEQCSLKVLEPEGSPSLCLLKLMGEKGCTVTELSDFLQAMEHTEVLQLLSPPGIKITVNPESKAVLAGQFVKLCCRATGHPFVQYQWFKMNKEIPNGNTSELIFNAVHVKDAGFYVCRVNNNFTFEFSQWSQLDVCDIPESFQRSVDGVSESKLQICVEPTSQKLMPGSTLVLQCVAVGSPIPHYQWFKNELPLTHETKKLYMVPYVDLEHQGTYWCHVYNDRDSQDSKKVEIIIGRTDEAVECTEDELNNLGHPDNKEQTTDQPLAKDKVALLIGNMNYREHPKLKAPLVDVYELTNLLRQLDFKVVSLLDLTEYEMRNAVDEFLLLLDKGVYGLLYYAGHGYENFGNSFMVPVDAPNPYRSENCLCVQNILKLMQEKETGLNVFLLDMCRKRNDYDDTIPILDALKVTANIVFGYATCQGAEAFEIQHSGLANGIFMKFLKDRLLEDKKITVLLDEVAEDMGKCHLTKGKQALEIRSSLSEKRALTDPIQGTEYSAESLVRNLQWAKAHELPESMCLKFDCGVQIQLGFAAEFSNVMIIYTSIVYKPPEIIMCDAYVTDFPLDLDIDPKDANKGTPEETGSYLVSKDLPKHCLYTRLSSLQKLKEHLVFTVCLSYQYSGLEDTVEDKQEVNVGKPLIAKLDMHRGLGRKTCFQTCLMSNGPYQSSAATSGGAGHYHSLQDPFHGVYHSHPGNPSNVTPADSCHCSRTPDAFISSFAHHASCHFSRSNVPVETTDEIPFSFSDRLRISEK

| SMILES | IC50 (Avi-tagged FL MALT-1) [µM] | IC50 [1] [µM] |
| --- | --- | --- |
| Cn1ncc2cccc(NS(=O)(=O)c3cnn(-c4cc(C5(O)CCOC5)ccn4)c3)c21 (stereo in doubt) [Compound I-310, (S)-1-(4-(3-hydroxytetrahydrofuran-3-yl)pyridin-2-yl)-N-(1-methyl-1H-indazol-7-yl)-1H-pyrazole-4-sulfonamide] | > 2.5 | < 0.4 |
| Cn1ncc2cccc(NS(=O)(=O)c3cnn(-c4cc(C5(O)CCOC5)ccn4)c3)c21 (stereo in doubt) [Compound I-312, (R)-1-(4-(3-hydroxytetrahydrofuran-3-yl)pyridin-2-yl)-N-(1-methyl-1H-indazol-7-yl)-1H-pyrazole-4-sulfonamide] | > 2.5 | < 0.4 |
| CC[C@](C)(OC)c1ccnc(-n2cc(S(=O)(=O)Nc3cccc4cnn(C)c34)cn2)c1 (stereo in doubt) [Compound I-313, 1-(4-(2-methoxybutan-2-yl)pyridin-2-yl)-N-(1-methyl-1H-indazol-7-yl)-1H-pyrazole-4-sulfonamide] | > 2.5 | < 0.4 |
| CC[C@@](C)(OC)c1ccnc(-n2cc(S(=O)(=O)Nc3cccc4cnn(C)c34)cn2)c1 (stereo in doubt) [Compound I-314, 1-(4-(2-methoxybutan-2-yl)pyridin-2-yl)-N-(1-methyl-1H-indazol-7-yl)-1H-pyrazole-4-sulfonamide] | > 2.5 | < 0.4 |
| CCc1ccc2cnn(C)c2c1NS(=O)(=O)c1cnn(-c2ccc(C(F)(F)F)cn2)c1 [Compound I-1, 3N-(6-Ethyl-1-Methyl-1H-Indazol-7-yl)-1-(5-(Trifluoromethyl)Pyridin-2-yl)-1H-Pyrazole-4-Sulfonamide] | ≤ 0.4 | < 0.4 |
| CCc1ccc2cnn(C)c2c1NS(=O)(=O)c1cnn(-c2ccnc(C(F)(F)F)c2)c1 [Compound I-2, N-(6-Ethyl-1-Methyl-1H-Indazol-7-yl)-1-(2-(Trifluoromethyl) Pyridin-4-yl)-1H-Pyrazole-4-Sulfonamide] | ≤ 0.4 | < 0.4 |
| CCc1ccc2cnn(C)c2c1NS(=O)(=O)c1cnn(-c2cncc(C(F)(F)F)c2)c1 [Compound I-3, N-(6-Ethyl-1-Methyl-1H-Indazol-7-yl)-1-(5-(Trifluoromethyl) Pyridin-3-yl)-1H-Pyrazole-4-Sulfonamide] | ≤ 0.4 | < 0.4 |
| COc1ccc2cnn(C)c2c1NS(=O)(=O)c1cnn(-c2ccnc(C(F)(F)F)c2)c1 [Compound I-4, N-(6-Methoxy-1-Methyl-1H-Indazol-7-yl)-1-(2-(Trifluoromethyl)Pyridin-4-yl)-1H-Pyrazole-4-Sulfonamide] | ≤ 0.4 | < 0.4 |
| Cn1ncc2ccc(CC#N)c(NS(=O)(=O)c3cnn(-c4ccnc(C(F)(F)F)c4)c3)c21 [Compound I-6, N-(6-(Cyanomethyl)-1-Methyl-1H-Indazol-7-yl)-1-(2-(Trifluoromethyl)Pyridin-4-yl)-1H-Pyrazole-4-Sulfonamide] | 0.4 to 1 | 1 to 2.5 |
| CN(C)c1ccc2cnn(C)c2c1NS(=O)(=O)c1cnn(-c2ccnc(C(F)(F)F)c2)c1 [Compound I-7, N-(6-(Dimethylamino)-1-Methyl-1H-Indazol-7-yl)-1-(2-(Trifluoromethyl)Pyridin-4-yl)-1H-Pyrazole-4-Sulfonamide] | ≤ 0.4 | 0.4 to 1 |
| C#Cc1ccc2cnn(C)c2c1NS(=O)(=O)c1cnn(-c2ccnc(C(F)(F)F)c2)c1 [Compound I-8, N-(6-Ethynyl-1-Methylindazol-7-yl)-1-(2-(Trifluoromethyl) Pyridin-4-yl)-Pyrazole-4-Sulfonamide] | ≤ 0.4 | 0.4 to 1 |
| CCOc1ccc2cnn(C)c2c1NS(=O)(=O)c1cnn(-c2ccnc(C(F)(F)F)c2)c1 [Compound I-9, N-(6-Ethoxy-1-Methyl-1H-Indazol-7-yl)-1-(2-(Trifluoromethyl)Pyridin-4-yl)-1H-Pyrazole-4-Sulfonamide] | ≤ 0.4 | 0.4 to 1 |
| CC(C)Oc1ccc2cnn(C)c2c1NS(=O)(=O)c1cnn(-c2ccnc(C(F)(F)F)c2)c1 [Compound I-10, N-(6-Isopropoxy-1-Methyl-1H-Indazol-7-yl)-1-(2-(Trifluoromethyl)Pyridin-4-yl)-1H-Pyrazole-4-Sulfonamide] | ≤ 0.4 | 0.4 to 1 |
| CCc1ccc2cnn(C)c2c1NS(=O)(=O)c1cnn(-c2cc(C(F)(F)F)ccn2)c1 [Compound I-14, N-(6-Ethyl-1-Methyl-1H-Indazol-7-yl)-1-(4-(Trifluoromethyl) Pyridin-2-yl)-1H-Pyrazole-4-Sulfonamide] | ≤ 0.4 | < 0.4 |
| Cn1ncc2cccc(NS(=O)(=O)c3cnn(-c4cc(C(F)(F)F)ccn4)c3)c21 [Compound I-15, N-(1-Methyl-1H-Indazol-7-yl)-1-(4-(Trifluoromethyl)Pyridin-2-yl)-1H-Pyrazole-4-Sulfonamide] | 0.4 to 1 | < 0.4 |
| Cn1ncc2cccc(NS(=O)(=O)c3cnn(-c4ccnc(C(F)(F)F)c4)c3)c21 [Compound I-16, N-(1-Methyl-1H-Indazol-7-yl)-1-(2-(Trifluoromethyl)Pyridin-4-yl)-1H-Pyrazole-4-Sulfonamidemide] | > 2.5 | > 2.5 |
| Cn1ncc2ccc(C3CC3)c(NS(=O)(=O)c3cnn(-c4cncc(C(F)(F)F)c4)c3)c21 [Compound I-18] | ≤ 0.4 | 0.4 to 1 |
| CCc1ccc2cnn(C)c2c1NS(=O)(=O)c1cnn(-c2cc(C(F)(F)F)ncn2)c1 [Compound I-19, N-(6-Ethyl-1-Methyl-1H-Indazol-7-yl)-1-(6-(Trifluoromethyl) Pyrimidin-4-yl)-1H-Pyrazole-4-Sulfonamide] | ≤ 0.4 | < 0.4 |
| Cn1ncc2ccc(C3CC3)c(NS(=O)(=O)c3cnn(-c4ccc(C(F)(F)F)cn4)c3)c21 [Compound I-20, N-(6-Cyclopropyl-1-Methyl-1H-Indazol-7-yl)-1-(5-(Trifluoromethyl)Pyridin-2-yl)-1H-Pyrazole-4-Sulfonamide] | 1 to 2.5 | 1 to 2.5 |
| Cn1ncc2ccc(C3CC3)c(NS(=O)(=O)c3cnn(-c4ccnc(C(F)(F)F)c4)c3)c21 [Compound I-21, N-(6-cyclopropyl-1-Methyl-1H-Indazol-7-yl)-1-(2-(Trifluoromethyl)Pyridin-4-yl)-1H-Pyrazole-4-Sulfonamide] | ≤ 0.4 | < 0.4 |
| COc1ccc2cnn(C)c2c1NS(=O)(=O)c1cnn(-c2ccc(C(F)(F)F)cn2)c1 [Compound I-22, N-(6-Methoxy-1-Methyl-1H-Indazol-7-yl)-1-(5-(Trifluoromethyl)Pyridin-2-yl)-1H-Pyrazole-4-Sulfonamide] | ≤ 0.4 | < 0.4 |
